In patent US5061794A, “Cephalosporin derivatives, and antibacterial agents” (priority 1986, dated 1991):
Values after ≈ are worked out from the molar mass of the structure shown. Read-outs that look alike come from different tables or passages of the source.

How the values were obtained:
E. coli CSH2 (RK1) = assay: microbe, parasite or virus in culture; assay type: cell-based; details: Escherichia coli, 16 h, read-out: Minimum Inhibitory Concentration (MIC), *E. coli CSH2 (RK1), lactamase-producing strain; 10^6 CFU/ml
In short: (§1)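 Agar plate dilution on Mueller Hinton agar containing graded compound levels, inoculated at 10^6 CFU/ml from overnight Mueller Hinton broth cultures. MIC (μg/ml) read after 16 h at 37°C.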

E. coli CSH(RE45) = assay: microbe, parasite or virus in culture; assay type: cell-based; details: Escherichia coli, 16 h, read-out: Minimum Inhibitory Concentration (MIC), *E. coli CSH(RE45), lactamase-producing strain; 10^6 CFU/ml
In short: as §1

S. marcescens No. 16-2 = assay: in vitro antibacterial activity, agar plate dilution method (MIC); assay type: cell-based; details: Serratia marcescens, NO.162, 16 h
In short: as §1

P. vulgaris No. 33 = assay: as above; assay type: cell-based; details: Proteus vulgaris, NO.33, 16 h, read-out: Minimum Inhibitory Concentration (MIC), *P. vulgaris No. 33, lactamase-producing strain; 10^6 CFU/ml
In short: as §1

K. oxytoca GN10650 = assay: as above; assay type: cell-based; details: Klebsiella oxytoca, 10^6 CFU/ml
In short: as §1

E. coli GN5482 = assay: as above; assay type: cell-based; details: Escherichia coli, GN5482, 16 h
In short: as §1

E. cloacae 963 = assay: as above; assay type: cell-based; details: 10^6 CFU/ml
In short: as §1

K. pneumoniae No. 42 = assay: as above; assay type: cell-based; details: Klebsiella pneumoniae, 10^6 CFU/ml
In short: as §1

S. marcescens IAM 1184 = assay: as above; assay type: cell-based; details: Serratia marcescens, IAM1184, 16 h, S. marcescens IAM 1184; 10^6 CFU/ml; read-out: Minimum Inhibitory Concentration (MIC)
In short: as §1

E. cloacae Nek 39 = assay: as above; assay type: cell-based; details: Enterobacter cloacae, NEK39, 16 h, read-out: Minimum Inhibitory Concentration (MIC), *E. cloacae Nek 39, lactamase-producing strain; 10^6 CFU/ml
In short: as §1

E. coli NIHJ JC2 = assay: as above; assay type: cell-based; details: Escherichia coli, NIHJJC2, 16 h, read-out: Minimum Inhibitory Concentration (MIC), E. coli NIHJ JC2, 10^6 CFU/ml, 37° C.
In short: as §1

K. pneumoniae PCI-602 = assay: as above; assay type: cell-based; details: Klebsiella pneumoniae, PCI602, 16 h, read-out: Minimum Inhibitory Concentration (MIC), K. pneumoniae PCI-602; 10^6 CFU/ml
In short: as §1

M. morganii GN5407 = assay: as above; assay type: cell-based; details: Morganella morganii, GN5407, 16 h, read-out: Minimum Inhibitory Concentration (MIC), *M. morganii GN5407, lactamase-producing strain; 10^6 CFU/ml
In short: as §1

S. aureus 209P NIHJ-JC1 = assay: as above; assay type: cell-based; details: Staphylococcus aureus, 16 h
In short: as §1

P. vulgaris HX-19 = assay: as above; assay type: cell-based; details: Proteus vulgaris, HX19, 16 h, P. vulgaris HX-19; 10^6 CFU/ml; read-out: Minimum Inhibitory Concentration (MIC)
In short: as §1

Ps. aeruginosa AKR17 = assay: as above; assay type: cell-based, Pseudomonas aeruginosa; details: Pseudomonas aeruginosa
In short: as §1

Ps. aeruginosa IF03445 = assay: as above; assay type: cell-based, Pseudomonas aeruginosa; details: Pseudomonas aeruginosa, IF03445, 16 h, read-out: Minimum Inhibitory Concentration (MIC), Ps. aeruginosa IF03445; 10^6 CFU/ml
In short: as §1

Ps. aeruginosa AK 109 = assay: as above; assay type: cell-based, Pseudomonas aeruginosa; details: Pseudomonas aeruginosa, AK109, 16 h
In short: as §1

Ps. cepacia 23 = assay: as above; assay type: cell-based, Pseudomonas cepacia; details: Burkholderia cepacia, 16 h; Ps. cepacia 23; 10^6 CFU/ml; read-out: Minimum Inhibitory Concentration (MIC)
In short: as §1

A. calcoaceticus No. 4 = assay: as above; assay type: cell-based, Acinetobacter calcoaceticus; details: Acinetobacter calcoaceticus, NO.4, 16 h, 10^6 CFU/ml
In short: as §1

[1] = read-out: Minimum Inhibitory Concentration (MIC)
[2] = GN10650, 16 h, read-out: Minimum Inhibitory Concentration (MIC), *K. oxytoca GN10650, lactamase-producing strain
[3] = NO.42, 16 h, read-out: Minimum Inhibitory Concentration (MIC), *K. pneumoniae No. 42, lactamase-producing strain
[4] = 16 h, Ps. aeruginosa AKR17, 10^6 CFU/ml, read-out: Minimum Inhibitory Concentration (MIC)
[5] = A. calcoaceticus No. 4, read-out: Minimum Inhibitory Concentration (MIC)
[6] = Enterobacter cloacae, 963, 16 h, read-out: Minimum Inhibitory Concentration (MIC), E. cloacae 963
[7] = read-out: Minimum Inhibitory Concentration (MIC), S. aureus 209P NIHJ-JC1, 10^6 CFU/ml, 37° C., 16 hours
[8] = Ps. aeruginosa AK 109, 10^6 CFU/ml, read-out: Minimum Inhibitory Concentration (MIC)
[9] = read-out: Minimum Inhibitory Concentration (MIC), A. calcoaceticus No. 4
[10] = read-out: Minimum Inhibitory Concentration (MIC), *S. marcescens No. 16-2, lactamase-producing strain, 10^6 CFU/ml
[11] = read-out: Minimum Inhibitory Concentration (MIC), *E. coli GN5482, lactamase-producing strain, 10^6 CFU/ml
[12] = read-out: Minimum Inhibitory Concentration (MIC), Ps. aeruginosa AK 109, 10^6 CFU/ml

Row | SMILES | MIC (E. coli CSH2 (RK1)) [µg/mL] | MIC (E. coli CSH(RE45)) [µg/mL] | MIC (P. vulgaris No. 33) [µg/mL] | MIC (K. oxytoca GN10650; [2]) [µg/mL] | MIC (E. coli GN5482; [1]) [µg/mL] | MIC (K. pneumoniae No. 42; [3]) [µg/mL] | MIC (S. marcescens IAM 1184) [µg/mL] | MIC (E. cloacae Nek 39) [µg/mL] | MIC (E. coli NIHJ JC2) [µg/mL] | MIC (K. pneumoniae PCI-602) [µg/mL] | MIC (M. morganii GN5407) [µg/mL] | MIC (P. vulgaris HX-19) [µg/mL] | MIC (Ps. aeruginosa AKR17; [4]) [µg/mL] | MIC (Ps. aeruginosa IF03445) [µg/mL] | MIC (Ps. cepacia 23) [µg/mL] | MIC (A. calcoaceticus No. 4; [5]) [µg/mL] | MIC (E. cloacae 963; [6]) [µg/mL] | MIC (S. aureus 209P NIHJ-JC1; [7]) [µg/mL] | MIC (S. marcescens No. 16-2; [10]) [µg/mL] | MIC (E. coli GN5482; [11]) [µg/mL] | other results
1 | Nc1nc(/C(=N/OCc2ccccc2)C(=O)N[C@@H]2C(=O)N3C(C(=O)O)=C(CSc4nnc(-c5ccc(O)c(O)c5)o4)CS[C@H]23)cs1 [Ex. 13, sodium 7β-[2-(2-aminothiazol-4-yl)-2-benzyloxyiminoacetamido]-3-[5-(3,4-dihydroxyphenvl)-1,3,4-oxadiazol-2-yl]thiomethyl-3-cephem-4-carboxylate] | < 0.006 | 1.56 | 0.025 | 0.39 | 0.39 | 0.05 | 0.0125 | 0.1 | 0.1 | < 0.006 | 0.025 | < 0.006 | 50 | 0.39 | 0.025 | 0.2 | – | – | – | – | MIC (S. marcescens No. 16-2; [1]): 3.12 µg/mL; MIC (E. cloacae 963; Enterobacter cloacae, 16 h, E. cloacae 963, read-out: Minimum Inhibitory Concentration (MIC)): 0.0125 µg/mL; MIC (S. aureus 209P NIHJ-JC1; [1]): 0.39 µg/mL; MIC (Ps. aeruginosa AK 109; [1]): 0.39 µg/mL
2 | Nc1nc(/C(=N/OCc2ccc(O)c(O)c2)C(=O)N[C@@H]2C(=O)N3C(C(=O)O)=C(CSc4nnc(-c5ccc(O)c(O)c5)o4)CS[C@H]23)cs1 [Ex. 14, sodium 7β-[2-(2-aminothiazol-4-yl)-2-(3,4-dihydroxybenzyloxyimino)acetamido]-3-[5-(3,4-dihydroxyphenyl)-1,3,4-oxadiazol-2-yl]thiomethyl-3-cephem-4-carboxylate] | 0.05 | 3.12 | 0.2 | 6.25 | 3.12 | 0.39 | 0.1 | 1.56 | 0.39 | < 0.006 | 0.1 | 0.05 | > 100 | 12.5 | 0.1 | – | 0.39 | 1.56 | – | – | MIC (S. marcescens No. 16-2; *S. marcescens No. 16-2, lactamase-producing strain, 10^6 CFU/ml, read-out: Minimum Inhibitory Concentration (MIC)): 25 µg/mL; MIC (Ps. aeruginosa AK 109; [8]): 100 µg/mL; MIC (A. calcoaceticus No. 4; [9]): 0.39 µg/mL
3 | Nc1nc(/C(=N/OC(C(=O)O)c2ccccc2)C(=O)N[C@@H]2C(=O)N3C(C(=O)O)=C(CSc4nnc(-c5ccc(O)c(O)c5)o4)CS[C@H]23)cs1 (stereo partly drawn) [Ex. 15, disodium 7δ-[2-(2-aminothiazol-4-yl)-2-(α-carboxylatebenzyloxyimino)acetamido]-3-[5-(3,4-dihydroxyphenyl)-1,3,4-oxadiazol-2-yl]thiomethyl-3-cephem-4-carboxylate] | < 0.006 | 3.12 | 0.0125 | 0.0125 | – | 0.05 | 0.025 | 0.05 | 0.1 | < 0.006 | 0.05 | < 0.006 | – | 0.78 | < 0.006 | 0.05 | 0.025 | – | 0.78 | 1.56 | MIC (S. aureus 209P NIHJ-JC1; [1]): 12.5 µg/mL; MIC (Ps. aeruginosa AKR17; AKR17, 16 h, read-out: Minimum Inhibitory Concentration (MIC), Ps. aeruginosa AKR17, 10^6 CFU/ml): 0.78 µg/mL; MIC (Ps. aeruginosa AK 109; [1]): 0.39 µg/mL
4 | Nc1nc(/C(=N/Oc2ccccc2)C(=O)N[C@@H]2C(=O)N3C(C(=O)O)=C(CSc4nnc(-c5ccc(O)c(O)c5)o4)CS[C@H]23)cs1 [Ex. 22, sodium 7β-[2-(2-aminothiazol-4-yl)2phenoxyiminoacetamido]-3-[5-(3,4-dihydroxyphenyl)-1,3,4-oxadiazol-2-yl]thiomethyl-3-cephem-4-carboxylate] | 0.0125 | < 0.006 | 0.025 | – | – | 0.0125 | 0.05 | 0.05 | 0.39 | < 0.006 | 0.0125 | < 0.006 | > 100 | 1.56 | 0.025 | 0.2 | 0.025 | 0.78 | 0.78 | 0.78 | MIC (K. oxytoca GN10650; 16 h, *K. oxytoca GN10650, lactamase-producing strain, read-out: Minimum Inhibitory Concentration (MIC)): 100 µg/mL; MIC (Ps. aeruginosa AK 109; [12]): 1.56 µg/mL
5 | Nc1nc(/C(=N/OCc2ccccc2CC(=O)O)C(=O)N[C@@H]2C(=O)N3C(C(=O)O)=C(CSc4nnc(-c5ccc(O)c(O)c5)o4)CS[C@H]23)cs1 [Ex. 23] | < 0.006 | < 0.006 | 0.0125 (≈ 0.0169 µM) | 0.1 (≈ 0.135 µM) | – | – | 0.025 (≈ 0.0338 µM) | 0.1 (≈ 0.135 µM) | 0.2 (≈ 0.27 µM) | < 0.006 | 0.025 (≈ 0.0338 µM) | < 0.006 | – | 0.39 (≈ 0.527 µM) | < 0.006 | – | 0.025 (≈ 0.0338 µM) | 6.25 (≈ 8.45 µM) | 1.56 (≈ 2.11 µM) | 0.78 (≈ 1.05 µM) | MIC (K. pneumoniae No. 42; 16 h, *K. pneumoniae No. 42, lactamase-producing strain, read-out: Minimum Inhibitory Concentration (MIC)): < 0.006 µg/mL; MIC (Ps. aeruginosa AKR17; AKR17, 16 h, read-out: Minimum Inhibitory Concentration (MIC)): 12.5 µg/mL (≈ 16.9 µM); MIC (Ps. aeruginosa AK 109; [8]): 0.1 µg/mL (≈ 0.135 µM); MIC (A. calcoaceticus No. 4; [9]): 0.1 µg/mL (≈ 0.135 µM)
6 | CO/N=C(\C(=O)N[C@@H]1C(=O)N2C(C(=O)O)=C(CSc3nnc(-c4ccc(O)c(O)c4)s3)CS[C@H]12)c1csc(N)n1 [Ex. 25, sodium 7β-[2-(2-aminothiazol-4-yl)-2-methoxviminoacetamido]-3-[5-(3,4-dihydroxyphenyl)-1,3,4-thiadiazol-2-yl]thiomethyl-3-cephem-4-carboxylate] | < 0.006 | 0.025 | 0.025 | 0.78 | – | 0.0125 | 0.0125 | 0.39 | 0.2 | < 0.006 | 0.025 | < 0.006 | 100 | 0.78 | < 0.006 | 0.2 | 0.025 | 0.78 | 1.56 | 0.78 | MIC (Ps. aeruginosa AK 109; [12]): 0.78 µg/mL
